Reference: US12577206B2 (BRISTOL-MYERS SQUIBB COMPANY, priority 2020, dated 2026)
pEC50: −log10 of the molar value.

Experiments:
[1] = target: T1, human FPR1 (Homo sapiens, UniProt P21462); assay: FPR1 cyclic adenosine monophosphate (cAMP) assay; format: cell-based; details: CHO cells overexpressing human FPR1; forskolin 10 μM; inhibition of cAMP production; HTRF; read-out: hFPR1 cAMP2 EC50
T1 sequence (P21462 1-350): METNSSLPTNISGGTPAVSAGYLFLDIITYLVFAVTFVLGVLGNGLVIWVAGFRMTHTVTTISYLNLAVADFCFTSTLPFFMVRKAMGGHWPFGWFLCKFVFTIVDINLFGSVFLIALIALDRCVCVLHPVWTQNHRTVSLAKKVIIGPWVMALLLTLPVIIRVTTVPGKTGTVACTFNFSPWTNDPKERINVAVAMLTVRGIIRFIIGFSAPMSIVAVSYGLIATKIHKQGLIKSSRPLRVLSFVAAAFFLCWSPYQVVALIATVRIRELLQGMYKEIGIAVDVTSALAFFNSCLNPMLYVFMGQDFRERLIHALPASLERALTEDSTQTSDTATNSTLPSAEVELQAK
Text: (§1) N-formyl peptide receptors (FPRs) are a family of chemo attractant receptors that facilitate leukocyte response during inflammation. FPRs belong to the seven-transmembrane G protein-coupled receptor superfamily and are linked to inhibitory G-proteins (Gi). Three family members (FPR1, FPR2 and FPR3) have been identified in humans and are predominantly found in myeloid cells with varied distribution and have also been reported in multiple organs and tissues. After agonist binding, the FPRs activate a multitude of physiological pathways, such as intra cellular signaling transduction, Ca^2+ mobilization and transcription. The family interacts with a diverse set of ligands that includes proteins, polypeptides and fatty acid metabolites which activate both pro-inflammatory and pro-resolution downstream responses. FPR2 and FPR1 Cyclic Adenosine Monophosphate (cAMP) Assays were used to measure the in vitro activity of the compounds disclosed in this application.
(§2) FPR2 and FPR1 Cyclic Adenosine Monophosphate (cAMP) Assays. A mixture of forskolin (5 μM final for FPR2 or 10 μM final for FPR1) and IBMX (200 μM final) were added to 384-well Proxiplates (Perkin-Elmer) pre-dotted with test compounds in DMSO (1% final) at final concentrations in the range of 0.020 nM to 100 μM. Chinese Hamster Ovary cells (CHO) overexpressing human FPR1 or human FPR2 receptors were cultured in F-12 (Ham's) medium supplemented with 10% qualified FBS, 250 μg/mL zeocin and 300 μg/mL hygromycin (Life Technologies). Reactions were initiated by adding 2,000 human FPR2 cells per well or 4,000 human FPR1 cells per well in Dulbecco's PBS (with calcium and magnesium) (Life Technologies) supplemented with 0.1% BSA (Perkin-Elmer). The reaction mixtures were incubated for 30 min at rt. The level of intracellular cAMP was determined using the HTRF HiRange cAMP assay reagent kit (Cisbio) according to manufacturer's instruction. Solutions of cryptate conjugated anti-cAMP and d2 flurorophore-labeled cAMP were made in a supplied lysis buffer separately. Upon completion of the reaction, the cells were lysed with equal volume of the d2-cAMP solution and anti-cAMP solution. […] The potency and activity of a compound to inhibit cAMP production was then determined by fitting to a 4-parametric logistic equation from a plot of cAMP level versus compound concentrations.

[2] = target: T2, human FPR2 (Homo sapiens, UniProt P25090); assay: FPR2 cyclic adenosine monophosphate (cAMP) assay; format: cell-based; details: CHO cells overexpressing human FPR2; forskolin 5 μM; inhibition of cAMP production; HTRF; read-out: hFPR2 cAMP2 EC50
T2 sequence (P25090 1-351): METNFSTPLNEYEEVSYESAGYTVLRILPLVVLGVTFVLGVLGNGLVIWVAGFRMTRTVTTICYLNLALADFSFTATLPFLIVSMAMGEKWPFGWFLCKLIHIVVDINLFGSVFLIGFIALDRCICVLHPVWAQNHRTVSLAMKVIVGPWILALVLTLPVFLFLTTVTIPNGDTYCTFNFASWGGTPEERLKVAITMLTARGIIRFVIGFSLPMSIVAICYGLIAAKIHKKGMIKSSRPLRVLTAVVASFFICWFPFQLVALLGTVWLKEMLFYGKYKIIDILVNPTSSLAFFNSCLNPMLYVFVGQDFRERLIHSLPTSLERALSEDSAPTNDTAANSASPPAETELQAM
Text: as §1, §2

| SMILES | pEC50 [1] | pEC50 [2] |
| --- | --- | --- |
| COc1cc(F)c(-c2c(NC(=O)c3ccc(OC(F)F)cc3)c(=O)n(-c3cccc(Cl)c3Cl)n2C)c(F)c1 [Example 34, N-[2-(2,3-dichlorophenyl)-5-(2,6-difluoro-4-methoxyphenyl)-1-methyl-3-oxo-2,3-dihydro-1H-pyrazol-4-yl]-4-(difluoromethoxy)benzamide] | 5.72 | 8.40 |
| COc1cc(F)c(-c2c(NC(=O)c3ccc(Cl)cc3)c(=O)n(-c3ccc(Cl)cc3)n2C)c(F)c1 [Example 36, 4-chloro-N-[2-(4-chlorophenyl)-5-(2,6-difluoro-4-methoxyphenyl)-1-methyl-3-oxo-2,3-dihydro-1H-pyrazol-4-yl]benzamide] | 6.57 | 8.05 |
| COc1cc(F)c(-c2c(NC(=O)c3ccc(OC(F)F)cc3)c(=O)n(-c3cccc(Cl)c3C)n2C)c(F)c1 [Example 37, N-[2-(3-chloro-2-methylphenyl)-5-(2,6-difluoro-4-methoxyphenyl)-1-methyl-3-oxo-2,3-dihydro-1H-pyrazol-4-yl]-4-(difluoromethoxy)benzamide] | < 5.00 | 7.72 |
| COc1cc(F)c(-c2c(NC(=O)c3ccc(OC(F)F)cc3)c(=O)n(-c3cccc(Cl)n3)n2C)c(F)c1 [Example 39, N-[2-(6-chloropyridin-2-yl)-5-(2,6-difluoro-4-methoxyphenyl)-1-methyl-3-oxo-2,3-dihydro-1H-pyrazol-4-yl]-4-(difluoromethoxy)benzamide] | 5.52 | 7.85 |
| COc1cc(F)c(-c2c(NC(=O)c3ccc(Cl)cc3)c(=O)n(-c3ccc(Cl)cn3)n2C)c(F)c1 [Example 43, 4-chloro-N-[2-(5-chloropyridin-2-yl)-5-(2,6-difluoro-4-methoxyphenyl)-1-methyl-3-oxo-2,3-dihydro-1H-pyrazol-4-yl]benzamide] | < 5.00 | 7.39 |
| COc1cc(F)c(-c2c(NC(=O)c3ccc(OC(F)F)cc3)c(=O)n(-c3ccccn3)n2C)c(F)c1 [Example 44, N-[5-(2,6-difluoro-4-methoxyphenyl)-1-methyl-3-oxo-2-(pyridin-2-yl)-2,3-dihydro-1H-pyrazol-4-yl]-4-(difluoromethoxy)benzamide] | < 5.00 | 7.80 |
| COc1cc(F)c(-c2c(NC(=O)c3ccc(OC(F)F)cc3)c(=O)n(-c3cccc(C4CC4)n3)n2C)c(F)c1 [Example 45, N-[2-(6-cyclopropylpyridin-2-yl)-5-(2,6-difluoro-4-methoxyphenyl)-1-methyl-3-oxo-2,3-dihydro-1H-pyrazol-4-yl]-4-(difluoromethoxy)benzamide] | 5.55 | 8.22 |
| COc1cc(F)c(-c2c(NC(=O)c3ccc(OC(F)F)cc3)c(=O)n(-c3cccc(C)n3)n2C)c(F)c1 [Example 46, N-[5-(2,6-difluoro-4-methoxyphenyl)-1-methyl-2-(6-methylpyridin-2-yl)-3-oxo-2,3-dihydro-1H-pyrazol-4-yl]-4-(difluoromethoxy)benzamide] | < 5.00 | 7.66 |
| COc1cc(F)c(-c2c(NC(=O)c3ccc(OC(F)F)cc3)c(=O)n(-c3ccc(C4CC4)cn3)n2C)c(F)c1 [Example 47, N-[2-(5-cyclopropylpyridin-2-yl)-5-(2,6-difluoro-4-methoxyphenyl)-1-methyl-3-oxo-2,3-dihydro-1H-pyrazol-4-yl]-4-(difluoromethoxy)benzamide] | 6.34 | 8.22 |
| COc1cc(F)c(-c2c(NC(=O)c3ccc(OC(F)F)cc3)c(=O)n(-c3ccc(-c4ccccc4)cn3)n2C)c(F)c1 [Example 51, N-[5-(2,6-difluoro-4-methoxyphenyl)-1-methyl-3-oxo-2-(5-phenylpyridin-2-yl)-2,3-dihydro-1H-pyrazol-4-yl]-4-(difluoromethoxy)benzamide] | 5.96 | 7.74 |
| COc1cc(F)c(-c2c(NC(=O)c3ccc(C4CC4)cc3)c(=O)n(-c3ccc(C4CC4)cn3)n2C)c(F)c1 [Example 53, 4-cyclopropyl-N-[2-(5-cyclopropylpyridin-2-yl)-5-(2,6-difluoro-4-methoxyphenyl)-1-methyl-3-oxo-2,3-dihydro-1H-pyrazol-4-yl]benzamide] | 6.21 | 7.23 |
| COc1cc(F)c(-c2c(NC(=O)c3ccc(OC(F)F)cc3)c(=O)n(-c3ncccc3C#N)n2C)c(F)c1 [Example 55, N-[2-(3-cyanopyridin-2-yl)-5-(2,6-difluoro-4-methoxyphenyl)-1-methyl-3-oxo-2,3-dihydro-1H-pyrazol-4-yl]-4-(difluoromethoxy)benzamide] | 5.02 | 8.10 |

Other lines, results leading:

| pEC50 [1] | pEC50 [2] | SMILES |
| --- | --- | --- |
| 5.77 | 8.22 | COc1cc(F)c(-c2c(NC(=O)c3ccc(OC(F)(F)F)cc3)c(=O)n(-c3cccc(Cl)c3Cl)n2C)c(F)c1 [Example 35, N-[2-(2,3-dichlorophenyl)-5-(2,6-difluoro-4-methoxyphenyl)-1-methyl-3-oxo-2,3-dihydro-1H-pyrazol-4-yl]-4-(trifluoromethoxy)benzamide] |
| 5.68 | 8.15 | COc1cc(F)c(-c2c(NC(=O)c3ccc(OC(F)(F)F)cc3)c(=O)n(-c3ncccc3Cl)n2C)c(F)c1 [Example 41, N-[2-(3-chloropyridin-2-yl)-5-(2,6-difluoro-4-methoxyphenyl)-1-methyl-3-oxo-2,3-dihydro-1H-pyrazol-4-yl]-4-(trifluoromethoxy)benzamide] |
| < 5.00 | 7.37 | COc1cc(F)c(-c2c(NC(=O)c3ccc(Cl)cc3)c(=O)n(-c3ccc(C)cn3)n2C)c(F)c1 [Example 48, 4-chloro-N-[5-(2,6-difluoro-4-methoxyphenyl)-1-methyl-2-(5-methylpyridin-2-yl)-3-oxo-2,3-dihydro-1H-pyrazol-4-yl]benzamide] |
| 5.17 | 7.26 | COc1cc(F)c(-c2c(NC(=O)c3ccc(OC(F)F)cc3)c(=O)n(-c3ccc(C)cn3)n2C)c(F)c1 [Example 49, N-[5-(2,6-difluoro-4-methoxyphenyl)-1-methyl-2-(5-methylpyridin-2-yl)-3-oxo-2,3-dihydro-1H-pyrazol-4-yl]-4-(difluoromethoxy)benzamide] |
| 5.89 | 7.74 | COc1cc(F)c(-c2c(NC(=O)c3ccc(OC(F)(F)F)cc3)c(=O)n(-c3ccc(C)cn3)n2C)c(F)c1 [Example 50, N-[5-(2,6-difluoro-4-methoxyphenyl)-1-methyl-2-(5-methylpyridin-2-yl)-3-oxo-2,3-dihydro-1H-pyrazol-4-yl]-4-(trifluoromethoxy)benzamide] |
| 6.72 | 8.05 | COc1cc(F)c(-c2c(NC(=O)c3ccc(OC(F)(F)F)cc3)c(=O)n(-c3ccc(C4CC4)cn3)n2C)c(F)c1 [Example 52, N-[2-(5-cyclopropylpyridin-2-yl)-5-(2,6-difluoro-4-methoxyphenyl)-1-methyl-3-oxo-2,3-dihydro-1H-pyrazol-4-yl]-4-(trifluoromethoxy)benzamide] |
| 5.48 | 7.72 | COc1cc(F)c(-c2c(NC(=O)c3ccc(OC(F)F)cc3)c(=O)n(-c3ccc(C#N)cn3)n2C)c(F)c1 [Example 54, N-[2-(5-cyanopyridin-2-yl)-5-(2,6-difluoro-4-methoxyphenyl)-1-methyl-3-oxo-2,3-dihydro-1H-pyrazol-4-yl]-4-(difluoromethoxy)benzamide] |
